Data reported in publication PMC6269792, “Arylsulfonylamino-Benzanilides as Inhibitors of the Apical Sodium-Dependent Bile Salt Transporter (SLC10A2)” (Molecules, 2013).

Assays:
Human ASBT = target: T1, Human ASBT (Homo sapiens, UniProt Q12908); test: ASBT inhibition assay: [3H]-taurocholic acid uptake in HEK293T cells transiently transfected with human ASBT; type: cell-based; conditions: for inhibition at 10 µM: HEK-293T; for IC50: inhibitor concentration that gives 50% taurocholate uptake compared to no inhibitor control
T1 construct: expressed in transfected cells; host or cells: HEK293T
T1 sequence (Q12908 1-348): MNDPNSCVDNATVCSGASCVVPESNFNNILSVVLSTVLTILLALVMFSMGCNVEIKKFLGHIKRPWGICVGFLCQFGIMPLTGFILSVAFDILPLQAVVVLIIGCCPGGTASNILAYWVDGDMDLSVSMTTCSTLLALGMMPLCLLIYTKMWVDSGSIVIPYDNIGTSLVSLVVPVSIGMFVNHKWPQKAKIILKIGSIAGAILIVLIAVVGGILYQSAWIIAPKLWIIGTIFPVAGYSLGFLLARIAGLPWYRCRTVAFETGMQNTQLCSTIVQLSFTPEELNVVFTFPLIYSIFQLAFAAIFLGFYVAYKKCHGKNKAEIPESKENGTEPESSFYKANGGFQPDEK
Protocol: In vitro inhibitory activity of all target compounds against ASBT was evaluated using a radioisotope-based assay. All the newly synthesized derivatives were initially tested at 10 μM concentration (Table 1).
HEK293T was obtained from the American Type Culture Collection (Manassas, VA, USA), and grown in MEM supplemented with 100 U/mL penicillin and […] streptomycin and 10% heat-inactivated fetal bovine serum. Human ASBT expression construct was prepared as previously described. HEK293T cells were seeded in 12 well plates and transiently transfected with 0.5 μg/well pcDNA3.1/ASBT or negative control plasmid pcDNA3.1 using lipofactamine 2000 (Invitrogen, Carlsbad, CA, USA) according to the manufacturer’s instructions. Twenty-four hours after transfection, HEK293T cells were assayed for taurocholic acid uptake as previously described with minor modifications. […] To terminate the transport process, the plates were chilled on ice and the cells were immediately washed with ice-cold buffer three times. Cells were lysed with 0.3 mL lysis buffer (0.5% triton x-100) and shaken vigorously for 20 min. The radioactivity of the cell lysate was counted using a MicroBeta^2 Liquid Scintillation and Luminescence Counter (PerkinElmer Life Sciences). Protein concentration of the lysate was used to normalize uptake activity.
The inhibition rate was calculated using the following formula: Inhibition Rate (%) = [(1 − (A − C)/(B − C)] × 100
A, [^3H] uptake value of test compound in [^3H]-TCA buffer added to pcDNA3.1/ASBT transfected cells; B, [^3H] uptake value of DMSO (without inhibitor) in [^3H]-TCA buffer added to pcDNA3.1/ASBT transfected cells; C, [^3H] uptake value of Blank sample (DMSO) in [^3H]-TCA buffer added to empty vector (pcDNA3.1) transfected cells.

ASBT = conditions: read-out: IC50 against ASBT; cited from earlier work

Structure (SMILES) | inhibition at 10 µM (Human ASBT) [%] | IC50 (Human ASBT) [nM] | melting point [°C] | IC50 (ASBT) [nM]
O=C(Nc1cccc(OC(F)(F)F)c1)c1ccccc1NS(=O)(=O)c1cccc([N+](=O)[O-])c1 [Compound 5a4, 2-(3-Nitrophenylsulfonamido)-N-(3-(trifluoromethoxy)phenyl)benzamide] | 83.8 ± 3.4 | 1230 ± 120 | 141.4 to 142 | –
O=C(Nc1ccc(Cl)cc1Cl)c1ccccc1NS(=O)(=O)c1ccc([N+](=O)[O-])cc1 [Compound 5d1, N-(2,4-Dichlorophenyl)-2-(4-nitrophenylsulfonamido)benzamide] | 66.9 ± 3.5 | – | 220.6 to 221.3 | –
O=C(Nc1ccc(Cl)c(Cl)c1)c1ccccc1NS(=O)(=O)c1cccc([N+](=O)[O-])c1 [Compound 5a1, N-(3,4-Dichlorophenyl)-2-(3-nitrophenylsulfonamido)benzamide] | – | – | – | 4000
O=C(Nc1cccc(OC(F)F)c1)c1cccc(NS(=O)(=O)c2cccc([N+](=O)[O-])c2)c1 [Compound 5b2, N-(3-(Difluoromethoxy)phenyl)-3-(3-nitrophenylsulfonamido)benzamide] | 30.6 ± 4.3 | – | 159.8 to 160.6 | –

More lines, main results first:

inhibition at 10 µM (Human ASBT) [%] | IC50 (Human ASBT) [nM] | melting point [°C] | Structure (SMILES) | IC50 (ASBT) [nM]
91.8 ± 3.5 | 830 ± 110 | 179.4 to 180.5 | Cc1ccc(NC(=O)c2ccccc2NS(=O)(=O)c2cccc(OC(F)(F)F)c2)cc1C(F)(F)F [Compound 5g3, N-(4-Methyl-3-(trifluoromethyl)phenyl)-2-(3-(trifluoromethoxy)phenylsulfonamido)benzamide] | –
59.5 ± 3.6 | – | 181.9 to 183.2 | COc1cccc(S(=O)(=O)Nc2ccccc2C(=O)Nc2ccc(F)c(Cl)c2)c1 [Compound 5f2, N-(3-Chloro-4-fluorophenyl)-2-(3-methoxyphenylsulfonamido)benzamide] | –
58.8 ± 4.3 | – | 203.9 to 205 | O=C(Nc1cccc(OC(F)F)c1)c1ccccc1NS(=O)(=O)c1ccc([N+](=O)[O-])cc1 [Compound 5d4, N-(3-(Difluoromethoxy)phenyl)-2-(4-nitrophenylsulfonamido)benzamide] | –
